The results in this text go back to US20240391954A1, “MC4R AGONIST PEPTIDES” (The Regents of the University of Michigan, priority 2021, published 2024).

Holding throughout (type): cell-based
One assay has as its target T1, human MC4R (Homo sapiens, UniProt P32245).
T1 construct: host or cells: HEK-293 cells stably expressing the GScAMP22F split-luciferase cAMP sensor and hMC4R, G418 selection
The assay is described as follows: split-luciferase cAMP sensor assay, agonist mode (measurement window 1), hMC4R. To be noted: agonist mode; for Emax: % maximal activation, read-out: MC4R cAMP % max activation; for EC50: HEK-293 cells stably expressing hMC4R, read-out: MC4R cAMP EC50. An outline of the steps:
(§1)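 EC50 values come from a four-parameter variable-slope fit of luminescence in measurement window 1, capturing direct peptide effects on receptor-expressing cells with a cAMP22f luciferase sensor. Cells were preloaded with 4% D-luciferin, serum-free medium; 20 μM forskolin normalized for cell number and transducer efficiency.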

The target in another assay is T2, human MC1R (Homo sapiens, UniProt Q01726).
T2 construct: expressed in transfected cells; host or cells: HEK-293 cells stably expressing hMC1R and the GScAMP22F cAMP sensor
The assay is described as follows: split-luciferase cAMP sensor assay, agonist mode, hMC1R. Conditions: MC4R versus MC1R. An outline of the steps: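 HEK-293 cells stably expressing hMC1R and the GScAMP22F split-luciferase cAMP sensor, preloaded 120 min at 37° C with D-luciferin in serum-free medium. Peptide responses were taken as peak luminescence over 2-13 min minus 2-min baseline, normalized to the α-MSH ECmax. EC50 was obtained from a four-parameter variable-slope fit.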

A further assay deals with T3, human MC3R (Homo sapiens, UniProt P41968).
T3 construct: expressed in transfected cells; host or cells: HEK-293 cells stably expressing the GScAMP22F split-luciferase cAMP sensor (parent reporter line from Promega); MC3R clone generated in-house, G418 selection
The assay is described as follows: split-luciferase cAMP sensor assay, agonist mode (measurement window 1), hMC3R. Conditions: for Emax: % maximal activation, read-out: MC3R cAMP % max activation; for Emax / EC50: agonist mode; for MC4R selectivity vs MC3R: MC4R versus MC3R; for EC50: HEK-293 cells stably expressing hMC3R, read-out: MC3R cAMP EC50. An outline of the steps: as §1

Positions of bridges follow the written chain, without caps; N, C: chain ends. Non-standard residues stand in square brackets, D forms with d. Residues, ends and D or L forms follow the SMILES beside them. 1Nal = N[C@@H](Cc1cccc2ccccc12)C(=O)O; 2Pal = N[C@@H](Cc1ccccn1)C(=O)O; Cit = NC(=O)NCCC[C@H](N)C(=O)O; Nle = CCCC[C@H](N)C(=O)O; Orn = NCCC[C@H](N)C(=O)O; Aib = CC(C)(N)C(=O)O A value given as a limit tells only on which side of the number the result lay.

T1 sequence (P32245 whole entry): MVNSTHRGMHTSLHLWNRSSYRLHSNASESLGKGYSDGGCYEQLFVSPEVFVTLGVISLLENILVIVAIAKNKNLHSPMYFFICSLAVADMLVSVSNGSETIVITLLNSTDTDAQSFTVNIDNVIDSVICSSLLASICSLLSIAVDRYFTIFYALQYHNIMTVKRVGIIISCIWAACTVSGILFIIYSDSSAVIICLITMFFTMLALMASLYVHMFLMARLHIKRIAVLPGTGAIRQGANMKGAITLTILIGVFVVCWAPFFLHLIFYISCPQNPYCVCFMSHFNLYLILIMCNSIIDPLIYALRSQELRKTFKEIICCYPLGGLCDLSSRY
T3 sequence (P41968 whole entry): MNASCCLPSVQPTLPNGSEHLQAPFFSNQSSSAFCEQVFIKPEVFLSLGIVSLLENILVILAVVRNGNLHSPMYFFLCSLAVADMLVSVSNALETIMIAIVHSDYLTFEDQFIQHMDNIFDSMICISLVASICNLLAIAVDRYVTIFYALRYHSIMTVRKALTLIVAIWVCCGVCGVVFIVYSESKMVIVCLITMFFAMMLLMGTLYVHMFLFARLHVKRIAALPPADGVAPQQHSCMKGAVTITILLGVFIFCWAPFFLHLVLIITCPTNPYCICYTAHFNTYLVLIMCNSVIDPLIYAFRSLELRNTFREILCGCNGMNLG
T2 sequence (Q01726 whole entry): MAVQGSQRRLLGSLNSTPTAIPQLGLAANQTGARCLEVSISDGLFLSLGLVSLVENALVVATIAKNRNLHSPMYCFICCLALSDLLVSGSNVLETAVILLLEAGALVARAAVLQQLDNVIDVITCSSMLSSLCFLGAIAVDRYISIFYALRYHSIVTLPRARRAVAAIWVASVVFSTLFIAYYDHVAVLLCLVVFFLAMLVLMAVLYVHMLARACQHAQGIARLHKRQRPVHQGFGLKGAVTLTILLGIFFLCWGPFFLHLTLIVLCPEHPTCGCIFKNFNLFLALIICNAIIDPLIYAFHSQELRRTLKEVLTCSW

With `CC(=O)N[C@@H](CCCNC(=N)N)C(=O)N[C@H]1CSSC[C@@H](C(N)=O)NC(=O)[C@H](Cc2ccccc2)NC(=O)[C@H](CCCNC(=N)N)NC(=O)[C@@H](Cc2ccccc2)NC(=O)[C@H](Cc2ccccn2)NC(=O)C(C)(C)NC1=O` [CTX-1604, Arg-cyclo(Cys-Aib-Pal(2′)-D-Phe-Arg-Phe-Cys)] (Ac-RC[Aib][2Pal][dF]RFC-NH2; disulfide 2-8 (inferred)), the Emax on human MC4R came to 96%. Also, at human MC1R, the “MC4R selectivity vs MC1R” value is listed as 3.66. On human MC3R, the Emax is 12% and the “MC4R selectivity vs MC3R” value is listed as 0.11.
On the same counts, the results for `CCCC[C@H](NC(=O)[C@H](CCCNC(=N)N)NC(C)=O)C(=O)N[C@H]1CSSC[C@@H](C(N)=O)NC(=O)[C@H](Cc2c[nH]c3ccccc23)NC(=O)[C@H](CCCNC(=N)N)NC(=O)[C@H](Cc2cccc3ccccc23)NC(=O)[C@H](Cc2c[nH]cn2)NC1=O` [CTX-1610, Arg-Nle-cyclo(Cys-His-Nal(1′)-Arg-Trp-Cys)] (Ac-R[Nle]CH[1Nal]RWC-NH2; disulfide 3-8) are 90%, 0.03, 67% and 0.66.
As for `CCCC[C@H](NC(=O)[C@H](CCCNC(=N)N)NC(C)=O)C(=O)N[C@H]1CSSC[C@@H](C(N)=O)NC(=O)[C@H](Cc2c[nH]c3ccccc23)NC(=O)[C@H](CCCNC(=N)N)NC(=O)[C@@H](Cc2ccccc2)NC(=O)[C@H](CCCN)NC1=O` [CTX-1617, Arg-Nle-cyclo(Cys-Orn-D-Phe-Arg-Trp-Cys)] (Ac-R[Nle]C[Orn][dF]RWC-NH2; disulfide 3-8), the Emax on human MC4R was found to be 102%. Also, the “MC4R selectivity vs MC1R” value at human MC1R was 1.75. In addition, at human MC3R, the Emax turned out to be 102% and the “MC4R selectivity vs MC3R” value amounted to 11.
In the case of `CC(=O)N[C@H]1CSSC[C@@H](C(N)=O)NC(=O)[C@H](Cc2ccccc2)NC(=O)[C@H](CCCNC(=N)N)NC(=O)[C@@H](Cc2ccccc2)NC(=O)[C@H](CCCNC(N)=O)NC(=O)C(C)(C)NC1=O` [CTX-1636, cyclo(Cys-Aib-Cit-D-Phe-Arg-Phe-Cys)] (Ac-C[Aib][Cit][dF]RFC-NH2; disulfide 1-7 (inferred)), the values for the Emax at human MC4R and at human MC3R were 102% and 44%, respectively. In addition, the “MC4R selectivity vs MC1R” value at human MC1R is recorded as more than 12. The “MC4R selectivity vs MC3R” value at human MC3R is 9.44.
For orientation: EC50 means the concentration needed to bring the measured effect to its halfway point. Turning to `CCCC[C@H](NC(=O)[C@H](CCCNC(=N)N)NC(C)=O)C(=O)N[C@H]1CSSC[C@@H](C(N)=O)NC(=O)[C@H](Cc2ccccc2)NC(=O)[C@H](CCCNC(=N)N)NC(=O)[C@@H](Cc2ccccc2)NC(=O)[C@H](CCCNC(=N)N)NC1=O` [CTX-1622, Arg-Nle-cyclo(Cys-Arg-D-Phe-Arg-Phe-Cys)] (Ac-R[Nle]CR[dF]RFC-NH2; disulfide 3-8 (inferred)), the Emax on human MC4R amounted to 101%. In addition, the “MC4R selectivity vs MC1R” value at human MC1R turned out to be 0.39. On human MC3R, the Emax came to 100%, the half-maximal effective concentration (EC50) is 0.013 µM and the “MC4R selectivity vs MC3R” value is 0.32.
With `CC(=O)N[C@H]1CSSC[C@@H](C(N)=O)NC(=O)[C@H](Cc2c[nH]c3ccccc23)NC(=O)[C@H](CCCNC(=N)N)NC(=O)[C@@H](Cc2ccccc2)NC(=O)[C@H](CCCNC(=N)N)NC(=O)[C@@H](C)NC1=O` [CTX-1627, cyclo(Cys-D-Ala-Arg-D-Phe-Arg-Trp-Cys)] (Ac-C[dA]R[dF]RWC-NH2; disulfide 1-7 (inferred)), at human MC4R, the Emax was found to be 104% and the half-maximal effective concentration (EC50) came out at 0.0014 µM. On human MC1R, the “MC4R selectivity vs MC1R” value came out at 9.33. For the same compound, on human MC3R, the Emax is 98%, the EC50 was determined as 0.0037 µM and the “MC4R selectivity vs MC3R” value was determined as 2.47.
For the compound `CCCC[C@H](NC(=O)[C@H](CCCNC(=N)N)NC(C)=O)C(=O)N[C@H]1CSSC[C@@H](C(N)=O)NC(=O)[C@H](Cc2c[nH]c3ccccc23)NC(=O)[C@H](CCCNC(=N)N)NC(=O)[C@H](Cc2ccccc2)NC(=O)[C@H](CCCNC(N)=O)NC1=O` [CTX-1609, Arg-Nle-cyclo(Cys-Cit-Phe-Arg-Trp-Cys)] (Ac-R[Nle]C[Cit]FRWC-NH2; disulfide 3-8 (inferred)), the Emax amounted to 96% at human MC4R and 65% at human MC3R. For the same compound, the “MC4R selectivity vs MC1R” value at human MC1R is 4.15. Also, the “MC4R selectivity vs MC3R” value on human MC3R amounted to 4.72.
For `N=C(N)NCCC[C@@H]1NC(=O)[C@@H](Cc2ccccc2)NC(=O)[C@H](CCCNC(N)=O)NC(=O)CNC(=O)CSC[C@@H](C(N)=O)NC(=O)[C@H](Cc2c[nH]c3ccccc23)NC1=O` [CTX-1646, Thioether-cyclo(Gly-Cit-D-Phe-Arg-Trp-Cys)] ({CH2CO}-G[Cit][dF]RWC-NH2; thioether N-6), at human MC4R, the Emax came to 103% and the 50% effective concentration (EC50) was 0.013 µM. Also, the “MC4R selectivity vs MC1R” value on human MC1R is given as more than 770. Further, at human MC3R, the Emax is 70% and the “MC4R selectivity vs MC3R” value was 193.
As for `CC(=O)N[C@@H](CCCNC(=N)N)C(=O)N[C@H]1CSSC[C@@H](C(N)=O)NC(=O)[C@H](Cc2c[nH]c3ccccc23)NC(=O)[C@H](CCCNC(=N)N)NC(=O)[C@@H](Cc2ccccc2)NC(=O)[C@H](CCCNC(N)=O)NC(=O)C(C)(C)NC1=O` [CTX-1289, Arg-cyclo(Cys-Aib-Cit-D-Phe-Arg-Trp-Cys)], on human MC4R, the Emax was 93%. In addition, the “MC4R selectivity vs MC1R” value on human MC1R amounted to 130. At human MC3R, the Emax turned out to be 21% and the “MC4R selectivity vs MC3R” value is on record as 30.
On to `CC(=O)N[C@@H](CCCNC(=N)N)C(=O)N[C@H]1CSSC[C@@H](C(N)=O)NC(=O)[C@H](Cc2c[nH]c3ccccc23)NC(=O)[C@H](CCCNC(=N)N)NC(=O)[C@@H](Cc2ccccc2)NC(=O)[C@H](CCCNC(N)=O)NC(=O)[C@H](C)NC1=O` [CTX-1287, Arg-cyclo(Cys-Ala-Cit-D-Phe-Arg-Trp-Cys)] (Ac-RCA[Cit][dF]RWC-NH2; disulfide 2-8 (inferred)), for which the Emax on human MC4R was 94%. Further, the “MC4R selectivity vs MC1R” value on human MC1R came to 281. In addition, at human MC3R, the Emax was 43% and the “MC4R selectivity vs MC3R” value worked out at 66.
Regarding `C[C@H]1NC(=O)CSC[C@@H](C(N)=O)NC(=O)[C@H](Cc2c[nH]c3ccccc23)NC(=O)[C@H](CCCNC(=N)N)NC(=O)[C@@H](Cc2ccccc2)NC(=O)[C@H](CCCNC(N)=O)NC1=O` [CTX-1643, Thioether-cyclo(D-Ala-Cit-D-Phe-Arg-Trp-Cys)] ({CH2CO}-[dA][Cit][dF]RWC-NH2; thioether N-6), the Emax on human MC4R amounted to 111%; at human MC3R, 81%. The “MC4R selectivity vs MC1R” value on human MC1R was determined as 261. Also, the “MC4R selectivity vs MC3R” value on human MC3R is 133.
For `CC(=O)N[C@@H](CCCNC(=N)N)C(=O)N[C@H]1CSSC[C@@H](C(N)=O)NC(=O)[C@@H](Cc2c[nH]c3ccccc23)NC(=O)[C@H](CCCNC(=N)N)NC(=O)[C@@H](Cc2ccccc2)NC(=O)[C@H](CCCNC(N)=O)NC(=O)[C@@H](C)NC1=O` [CTX-1286, Arg-cyclo(Cys-D-Ala-Cit-D-Phe-Arg-D-Trp-Cys)] (Ac-RC[dA][Cit][dF]R[dW]C-NH2; disulfide 2-8) the same measures were 91%, 24%, 3.4 and 2.16.
As for `CC1(C)NC(=O)CSC[C@@H](C(N)=O)NC(=O)[C@H](Cc2c[nH]c3ccccc23)NC(=O)[C@H](CCCNC(=N)N)NC(=O)[C@@H](Cc2ccccc2)NC(=O)[C@H](CCCNC(=N)N)NC1=O` [CTX-1648, Thioether-cyclo(Aib-Arg-D-Phe-Arg-Trp-Cys)] ({CH2CO}-[Aib]R[dF]RWC-NH2; thioether N-6), at human MC4R, the Emax amounted to 101%. Further, at human MC1R, the “MC4R selectivity vs MC1R” value is 13. In addition, at human MC3R, the Emax was determined as 91%, the half-maximal effective concentration (EC50) is 0.072 µM and the “MC4R selectivity vs MC3R” value is given as 63.
Consider `CC(=O)N[C@@H](CCCNC(=N)N)C(=O)N[C@H]1CSSC[C@@H](C(N)=O)NC(=O)[C@H](Cc2ccccc2)NC(=O)[C@H](CCCNC(=N)N)NC(=O)[C@@H](Cc2ccccc2)NC(=O)[C@H](CCCNC(=N)N)NC(=O)C(C)(C)NC1=O` [CTX-1601, Arg-cyclo(Cys-Aib-Arg-D-Phe-Arg-Phe-Cys)] (Ac-RC[Aib]R[dF]RFC-NH2; disulfide 2-8), for which the Emax at human MC4R stood at 97%. Also, the “MC4R selectivity vs MC1R” value on human MC1R turned out to be 0.93. Besides, at human MC3R, the Emax is 73% and the “MC4R selectivity vs MC3R” value is reported as 2.3.
With `C[C@H]1NC(=O)CSC[C@@H](C(N)=O)NC(=O)[C@H](Cc2ccccc2)NC(=O)[C@H](CCCNC(=N)N)NC(=O)[C@@H](Cc2ccccc2)NC(=O)[C@H](Cc2c[nH]cn2)NC1=O` [CTX-1656, Thioether-cyclo(D-Ala-His-D-Phe-Arg-Phe-Cys)] ({CH2CO}-[dA]H[dF]RFC-NH2; thioether N-6), at human MC4R, the Emax was 98% and the EC50 stood at 1.4 µM. Also, the “MC4R selectivity vs MC1R” value on human MC1R came to 1. In addition, on human MC3R, the Emax was 86% and the “MC4R selectivity vs MC3R” value is on record as 1.64.
Consider `CC(=O)N[C@H]1CSSC[C@@H](C(N)=O)NC(=O)[C@H](Cc2c[nH]c3ccccc23)NC(=O)[C@H](CCCNC(=N)N)NC(=O)[C@@H](Cc2ccccc2)NC(=O)[C@H](CCCNC(N)=O)NC(=O)CNC1=O` [CTX-1630, cyclo(Cys-Gly-Cit-D-Phe-Arg-Trp-Cys)] (Ac-CG[Cit][dF]RWC-NH2; disulfide 1-7 (inferred)), for which the Emax at human MC4R amounted to 102%. Further, at human MC1R, the “MC4R selectivity vs MC1R” value stood at 1816. Moreover, at human MC3R, the Emax stood at 35% and the “MC4R selectivity vs MC3R” value was 28.
